Measured values reported in patent publication US20220168322A1, “NOVEL STAT3 INHIBITORS IDENTIFIED BY STRUCTURE-BASED VIRTUAL SCREENING INCORPORATING SH2 DOMAIN FLEXIBILITY” (Board of Regents, The University of Texas System, priority 2018, published 2022).
Where two headings read alike, the source gives them in different places.

Legend:
[1] = tested on: G-CSF-stimulated pSTAT3; assay: Inhibition of G-CSF-stimulated pSTAT3 in Kasumi-1 cells (Luminex, pSTAT3/GAPDH); type: cell-based; conditions: for activity at 10 µM: Kasumi 1, read-out: % of Control Stimulated pSTAT3; for activity at 10 µM / % of Control Stimulated pSTAT3: single concentration of 10 μM, G-CSF 100 ng/ml, pSTAT3/GAPDH relative to DMSO treated cells; for inhibition at 10 µM: Kasumi-1 cells, read-out: inhibition of G-CSF-induced pY-STAT3
Experimental: […] Total protein was assayed for pSTAT3 and GAPDH levels by Luminex. GAPDH-normalized pSTAT3 values were divided by the same for untreated cells and expressed as percentage. These values were plotted as a function of Log [M] compound, and IC50 calculated using GraphPad. Data from representative experiments from at least two repeats is shown.
Luminex bead-based assay. Luminex bead-based assays were used to determine levels of pSTAT3, pSTAT1, pSTAT5, and GAPDH, as described (Bharadwaj et al., 2015). […]

[2] = target: T1, STAT3 (aa 127-722) (Homo sapiens, UniProt P40763); assay: SPR assay of STAT3 binding to immobilized EGFR pY1068 phosphododecapeptide; conditions: for inhibition at 10 µM / inhibition at 100 µM / inhibition of STAT3 binding to EGFR pY-peptide: SPR; for inhibition at 10 µM / inhibition at 100 µM: read-out: inhibition of STAT3 binding to EGFR pY-peptide; for % of max binding at 10 μm: pEGFRp-STAT3 binding (SPR) at pH 8, compound 10 μm; for % of max binding at 100 μm: pEGFRp-STAT3 binding (SPR) at pH 8, compound 100 μm; for inhibition at 100 µM / inhibition of STAT3 binding to EGFR pY-peptide: 100 μM
T1 construct: STAT3 (aa 127-722) at a concentration of 200 nM
Experimental: Surface plasmon resonance (SPR) assay of STAT3 binding pY-peptide. STAT3 (aa 127-722) at a concentration of 200 nM in 20 mM Tris buffer (pH 8) was pre-incubated without or with compounds prior to injection onto an SA chip immobilized with phosphorylated and control non-phosphorylated biotinylated EGFR derived dodecapeptides based on sequence surrounding Y1068 (Shao et al., 2004), on a Biacore 3000 biosensor (Biacore inc., Piscataway N.J.) and analyzed as described (Bharadwaj et al., 2016).
Surface Plasmon Resonance (SPR) was performed on the 24 compounds to determine their ability to block binding of purified STAT3 to an immobilized phosphododecapeptide based on EGFR Y1068 (EGFR pY-peptide), as described (Xu et al., 2009).

[3] = tested on: MDA-MB-231 cells; assay: Anchorage-independent and dependent cell growth (MTT), MDA-MB-231; type: cell-based; conditions: NA = No Activity
Experimental: (§1) MDA-MB-231 cells were cultured for 48 hrs in complete DMEM with 10% FBS±compound (0/0.1/0.3/1/3/10/100 μM) in cell-culture-treated plates and viable cells quantitated using MTT. Relative % viability (viability after any treatment÷viability of untreated cells×100) was plotted as a function of Log [M] compound, and IC50 values calculated using GraphPad.
as §1, with “72” for “48”, “cell-culture-treated ultra-low attachment 96-well” for “cell-culture-treated”
(§2) Anchorage-independent and dependent cell growth. Cells were cultured in triplicates in complete DMEM±drug, in ultra-low attachment 96 well plates for 72 hrs or cell-culture treated plates for 48 hrs and viable cells were quantitated using MTT. Optical density (OD) was measured at 590 nm using a 96-well multi-scanner (Synergy H1 microplate reader, BioTek Inc, VT, USA). Relative % viability (viability after any treatment÷viability of untreated cells×100) was plotted along Y-axis. At least 2 replicates experiments were performed and were used for IC50 calculation using GraphPad software.

[4] = tested on: MDA-MB-468 cells; assay: Anchorage-independent and dependent cell growth (MTT), MDA-MB-468; type: cell-based; conditions: NA = No Activity
Experimental: as §1, with “MDA-MB-468” for “MDA-MB-231”
as §1, with “MDA-MB-468” for “MDA-MB-231”, “72” for “48”, “cell-culture-treated ultra-low attachment 96-well” for “cell-culture-treated”, “treatment viability” for “treatment÷viability”
as §2

[5] = Kasumi1 cells, G-CSF induced pSTAT3/GAPDH by Luminex
[6] = Homo sapiens, MDA-MB-231, 72 h, anchorage independent, ultra-low attachment plates, 72 hrs, read-out: Growth AI IC50 231
[7] = Homo sapiens, MDA-MB-468, 48 h, anchorage dependent, cell-culture treated plates, 48 hrs, read-out: Growth AD IC50 468
[8] = Homo sapiens, MDA-MB-468, 72 h, anchorage independent, ultra-low attachment plates, 72 hrs, read-out: Growth AI IC50 468
[9] = anchorage dependent, cell-culture treated plates, 48 hrs, read-out: Growth AD IC50 468
[10] = Homo sapiens, MDA-MB-231, 48 h, anchorage dependent, cell-culture treated plates, 48 hrs, read-out: Growth AD IC50 231
[11] = anchorage dependent, cell-culture treated plates, 48 hrs, read-out: Growth AD IC50 231
[12] = anchorage dependent, cell-culture treated plates, 48 hrs
[13] = anchorage independent, ultra-low attachment plates, 72 hrs

T1 sequence (P40763 127-722 isoform P40763-3 limits assumed, species assumed): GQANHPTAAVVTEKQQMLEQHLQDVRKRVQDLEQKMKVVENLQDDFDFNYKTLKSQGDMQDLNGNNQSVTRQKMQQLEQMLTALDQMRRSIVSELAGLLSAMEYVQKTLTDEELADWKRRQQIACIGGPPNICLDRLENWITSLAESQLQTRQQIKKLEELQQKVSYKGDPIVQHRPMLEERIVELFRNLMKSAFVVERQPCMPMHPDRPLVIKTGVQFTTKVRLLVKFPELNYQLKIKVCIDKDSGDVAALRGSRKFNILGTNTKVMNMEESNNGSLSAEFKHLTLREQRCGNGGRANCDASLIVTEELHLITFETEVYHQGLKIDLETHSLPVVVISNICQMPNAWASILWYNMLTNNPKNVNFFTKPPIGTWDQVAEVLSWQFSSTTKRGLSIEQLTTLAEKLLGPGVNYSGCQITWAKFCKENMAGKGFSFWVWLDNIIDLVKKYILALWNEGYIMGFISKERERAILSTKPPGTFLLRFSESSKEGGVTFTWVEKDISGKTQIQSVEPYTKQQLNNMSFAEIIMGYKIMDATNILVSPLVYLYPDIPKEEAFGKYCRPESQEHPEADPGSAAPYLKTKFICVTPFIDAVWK

Structure (SMILES)	inhibition at 10 µM [2] [%]	% of max binding at 10 μm [2] [%]	% of max binding at 100 μm [2] [%]	activity at 10 µM ([1]; Homo sapiens, Kasumi1 cells) [%]	inhibition at 10 µM ([1]; Homo sapiens) [%]	% of Control Stimulated pSTAT3 ([1]; Kasumi1 cells) [%]	other results
COc1ccc(Br)cc1/C=C/C(=O)c1ccc(NC(C)=O)cc1 [SPEC-29, N-(4-[(E)-3-(5-bromo-2-methoxyphenyl)prop-2-enoyl)phenyl]acetamide]	29 to 71	69.6	22.1	0	20 to 80		IC50 [1, 5]: 2.7 µM; inhibition of STAT3 binding to EGFR pY-peptide [2]: 78%; inhibition at 100 µM [2]: 67 to 93%; IC50 [4, 7]: 2.4 to 12.1 µM; IC50 [4, 8]: 1.8 to 11.1 µM; IC50 [4, 9]: 2.4 ± 2.5 µM; IC50 ([4]; anchorage independent, ultra-low attachment plates, 72 hrs, read-out: Growth AI IC50 468): 1.8 ± 1.6 µM; IC50 [3, 10]: 3 to 12.2 µM; IC50 [3, 6]: 9.5 ± 4.1 µM; IC50 [3, 11]: 3 ± 2.2 µM
CC(C)c1ccc(NC(=O)C2C3C=CC(CC3)C2C(=O)O)cc1 (stereo not shown) [SPEC-65]		57.5	43.5			35	
CS(=O)(=O)c1ccc2nc(NC(=O)c3cccc(Cn4cc(Cl)cn4)c3)sc2c1 [SPEC-66]		57.2	15.9			48	
COc1ccc(CCNC(=O)c2cccc(C(=O)NCCc3ccc(OC)c(OC)c3)c2)cc1OC [SPEC-67]		64.1	51.3				
O=C(Nc1ccc(Oc2ccccc2Cl)cc1)C1C2CC3C(OC(=O)C31)C2Br (stereo not shown) [SPEC-73]		58.5	31.5			38	
CCOc1ccc(N(C(C)C(=O)Nc2cccc(Cl)c2C)S(C)(=O)=O)cc1 (stereo not shown) [SPEC-86]		120.1	59.1			5	
CCn1c(CNc2ccc(Cl)cc2)nnc1SC(C)C(=O)Nc1ccc(C(C)=O)cc1 (stereo not shown) [SPEC-90]		132.2	59.5			4	
CC(=O)Nc1nc(C)c(-c2csc(Nc3ccccc3)n2)s1 [SPEC-93, N-(2-aniline-4′-methyl-4,5′-bi-1,3-thiazol-2′-yl)acetamide]	29 to 71	116.8	28.3	0	20 to 80		inhibition at 100 µM [2]: 67 to 93%; IC50 [3, 6]: 15.7 ± 1.3 µM
CC(=O)c1ccc(NC(=O)C2C3CC/C=C\CCC32)cc1 (stereo not shown) [SPEC-102]		73.7	21.4			38	
CC1(C)CC(=O)c2sc(NC(=O)CSc3nnc(SCC(=O)Nc4nc5c(s4)C(=O)CC(C)(C)C5)s3)nc2C1 [SPEC-103]		76.0	10.4			46	
Cc1cc(NS(=O)(=O)c2ccc(NC(=O)COc3ccc(C(C)(C)c4ccccc4)cc3)cc2)nc(C)n1 [SPEC-106, N-(4-{[(2,6-dimethyl-4-pyrimidinyl)amino]sulfonyl}phenyl)-2-[4-(1-methyl-1-phenylethyl)phenoxy]acetamide]	29 to 71	68.9	20.4	1	20 to 80		inhibition at 100 µM [2]: 67 to 93%; IC50 [4, 7]: 25.6 to 65.2 µM; IC50 [4, 8]: 34.9 ± 1.3 µM; IC50 [4, 9]: 44.7 µM; IC50 [3, 10]: 25.6 to 65.2 µM; IC50 [3, 6]: 38.9 µM; IC50 [3, 11]: 39 µM

Continued, in another order:

inhibition at 10 µM [2] [%]	% of max binding at 10 μm [2] [%]	% of max binding at 100 μm [2] [%]	Structure (SMILES)	activity at 10 µM ([1]; Homo sapiens, Kasumi1 cells) [%]	inhibition at 10 µM ([1]; Homo sapiens) [%]	% of Control Stimulated pSTAT3 ([1]; Kasumi1 cells) [%]	other results
29 to 71	49.1	30.3	COc1ccc(/C=C/C(=O)c2cc(Br)ccc(=O)c2O)cc1 [SPEC-8, 5-bromo-2-hydroxy-3-[3-(4-methoxyphenyl)acryloyl]-2,4,6-cycloheptatrien-1-one]	0	20 to 80		IC50 [1, 5]: 4.1 µM; inhibition at 100 µM [2]: 67 to 93%; IC50 [3, 6]: 26.1 µM
	76.7	46.1	CCCCOc1ccc(/C=C2\SC(=O)NC2=O)cc1OCC [SPEC-20]			27	
	109.3	28.4	O=C(O)c1ccc(-c2ccc(/C=C3/NC(=O)N(Cc4ccccc4F)C3=O)o2)cc1Cl [SPEC-82]			27	
29 to 71	67.3	9.5	O=C(O)COc1c(Br)cc(/C=C2\SC(=O)N(CC(=O)N3CCN(c4ccccc4)CC3)C2=O)cc1Br [SPEC-85, [2,6-dibromo-4-({2,4-dioxo-3-[2-oxo-2-(4-phenyl-1-piperazinyl)ethyl]-1,3-thiazolidin-5-ylidene}methyl)phenoxy]acetic acid]	2	20 to 80		IC50 ([1]; Homo sapiens, Kasumi 1, Kasumi1 cells, G-CSF induced pSTAT3/GAPDH by Luminex): > 100 µM; G-CSF pSTAT3 IC50 [1, 5]: almost no activity; inhibition of STAT3 binding to EGFR pY-peptide [2]: 95%; Growth AD IC50 468 [4, 12]: no activity; Growth AI IC50 468 [4, 13]: no activity; Growth AD IC50 231 [3, 12]: no activity; Growth AI IC50 231 [3, 13]: no activity
29 to 71	70.4	7.8	COc1cc(/C=C2/SC(=O)NC2=O)ccc1OCc1ccc(Cl)cc1Cl [SPEC-98]	20	20 to 80		inhibition at 100 µM [2]: 67 to 93%; IC50 [4, 7]: 25.6 to 65.2 µM; IC50 [4, 8]: 64.1 ± 3.1 µM; IC50 [4, 9]: 32.5 ± 3.7 µM; IC50 [3, 10]: 25.6 to 65.2 µM; IC50 [3, 11]: 25.6 ± 3.9 µM
	70.8	15.4	COC(=O)c1ccc(N2C(=O)CC(SC(=NCCc3ccc(S(N)(=O)=O)cc3)Nc3ccccc3)C2=O)cc1 (stereo not shown) [SPEC-100]			42	
	97.1	82.3	NC(=O)CCN1CCN(CCOC2Cc3cc(Cl)ccc3Sc3ccccc32)CC1 (stereo not shown) [SPEC-109]			1	
